Numbered stars: 1 amine (or outer) side, 2 acyl side, 3 side chain; on linkers, the order of the positions; unused ones are H or OH. Bridge positions count the residues as written; N and C are the ends. Square brackets hold non-standard residues; d marks the D form. Peptide text beside a SMILES is read from it. I, II: the chains in the order shown. Actinocin(9to1) = Cc1c2oc3c(C)ccc(C(=O)[*:1])c3nc-2c(C(=O)[*:2])c(N)c1=O; NMeV = CN[C@H](C(=O)O)C(C)C; Sar = CNCC(=O)O
Test system: Hepatotoxicity
Test: Literature-mined public compounds from Greene et al multi-species hepatotoxicity modelling dataset

Compound | Hepatotoxicity
CN(C)CCN(Cc1ccccc1)c1ccccn1.Cl [TRIPELENNAMINE HYDROCHLORIDE] | HH: Evidence of human hepatotoxicity
CC(=O)Nc1ccc2c(c1)Cc1ccccc1-2 [2-ACETYLAMINOFLUORENE] | HH: Evidence of human hepatotoxicity
C=C1CC[C@@]2(O)[C@H]3Cc4ccc(O)c5c4[C@@]2(CCN3CC2CC2)[C@H]1O5 | NE: No evidence of hepatotoxicity in any species
CN(C)[C@@H]1C(O)=C(C(N)=O)C(=O)[C@@]2(O)C(O)=C3C(=O)c4c(O)ccc(Cl)c4[C@@H](O)[C@H]3C[C@@H]12.Cl [DEMECLOCYCLINE HYDROCHLORIDE] | HH: Evidence of human hepatotoxicity
O=C1CN(/N=C/c2ccc(-c3ccc([N+](=O)[O-])cc3)o2)C(=O)[N-]1.[Na+] [DANTROLENE SODIUM] | HH: Evidence of human hepatotoxicity
GADOLINIUM HYDROCHLORIDE | AH: Evidence for animal hepatotoxicity but not tested in humans
O[C@H]1[C@H](O)[C@@H](O)[C@H](O)[C@@H](O)[C@H]1O [INOSITOL] | NE: No evidence of hepatotoxicity in any species
Cl.N[C@@H]1C[C@H]1c1ccccc1 [TRANYLCYPROMINE HYDROCHLORIDE] | NE: No evidence of hepatotoxicity in any species
CCCCCCCCCCCCCCCC(=O)OC[C@@H](NC(=O)C(Cl)Cl)[C@H](O)c1ccc([N+](=O)[O-])cc1 [CHLORAMPHENICOL PALMITATE] | HH: Evidence of human hepatotoxicity
CC(=O)O[C@]1(C(C)=O)CC[C@H]2[C@@H]3C[C@H](C)C4=CC(=O)CC[C@]4(C)[C@H]3CC[C@@]21C [MEDROXYPROGESTERONE ACETATE] | WE: Weak evidence (<10 case reports) of human hepatotoxicity
Cc1nc2n(c(=O)c1CCN1CCC(c3noc4cc(F)ccc34)CC1)CCCC2 [RISPERIDONE] | HH: Evidence of human hepatotoxicity
CC(C)(Oc1ccc(C2CC2(Cl)Cl)cc1)C(=O)O (configuration not stated) [CIPROFIBRATE] | HH: Evidence of human hepatotoxicity
Cn1c(=O)c2c(ncn2C)n(C)c1=O [CAFFEINE] | NE: No evidence of hepatotoxicity in any species
Nc1ncnc2c1ncn2[C@@H]1O[C@H](CO)[C@@H](O)[C@@H]1O [VIDARABINE] | NE: No evidence of hepatotoxicity in any species
CC(=O)O[C@H]1C(=O)[C@@]2(C)[C@H]([C@H](OC(=O)c3ccccc3)[C@]3(O)C[C@H](OC(=O)[C@H](O)[C@@H](NC(=O)c4ccccc4)c4ccccc4)C(C)=C1C3(C)C)[C@]1(OC(C)=O)CO[C@@H]1C[C@@H]2O [PACLITAXEL] | HH: Evidence of human hepatotoxicity
Cc1ccc(C(=O)c2cc(O)c(O)c([N+](=O)[O-])c2)cc1 [TOLCAPONE] | HH: Evidence of human hepatotoxicity
O=C(O)c1ccncc1 [ISONICOTINIC ACID] | NE: No evidence of hepatotoxicity in any species
CN(C)/N=N/c1[nH]cnc1C(N)=O [DACARBAZINE] | HH: Evidence of human hepatotoxicity
Fc1ccc([C@@H]2CCNC[C@H]2COc2ccc3c(c2)OCO3)cc1 [PAROXETINE] | WE: Weak evidence (<10 case reports) of human hepatotoxicity

Compound | Hepatotoxicity
CNC(=C[N+](=O)[O-])NCCSCc1ccc(CN(C)C)o1 [RANITIDINE] | WE: Weak evidence (<10 case reports) of human hepatotoxicity
CNCCCN1c2ccccc2CCc2ccccc21 [DESIPRAMINE] | WE: Weak evidence (<10 case reports) of human hepatotoxicity
COC(=O)Nc1nc2ccc(C(=O)c3ccccc3)cc2[nH]1 [MEBENDAZOLE] | HH: Evidence of human hepatotoxicity
Cl.O=c1n(CCCN2CCN(c3cccc(Cl)c3)CC2)nc2ccccn12 [TRAZODONE HYDROCHLORIDE] | HH: Evidence of human hepatotoxicity
CCCCNc1ccc(C(=O)OCCN(C)C)cc1.Cl [TETRACAINE HYDROCHLORIDE] | NE: No evidence of hepatotoxicity in any species
CC(=O)N[C@@H](CS)C(=O)O [ACETYLCYSTEINE] | NE: No evidence of hepatotoxicity in any species
CN(C)CCCC1(c2ccc(F)cc2)OCc2cc(C#N)ccc21 (configuration not stated) [CITALOPRAM] | WE: Weak evidence (<10 case reports) of human hepatotoxicity
COc1cccc2c1C(=O)c1c(O)c3c(c(O)c1C2=O)C[C@@](O)(C(=O)CO)C[C@@H]3O[C@H]1C[C@H](N)[C@H](O)[C@H](C)O1 [DOXORUBICIN] | NE: No evidence of hepatotoxicity in any species
CC[N+](C)(CC)CCOC(=O)C(O)(c1ccccc1)C1CCCCC1 (configuration not stated) [OXYPHENONIUM] | NE: No evidence of hepatotoxicity in any species
COCC(=O)O[C@]1(CCN(C)CCCc2nc3ccccc3[nH]2)CCc2cc(F)ccc2[C@@H]1C(C)C [MIBEFRADIL] | NE: No evidence of hepatotoxicity in any species
CCC1(c2ccccc2)C(=O)NCNC1=O [PRIMIDONE] | NE: No evidence of hepatotoxicity in any species
C[C@H](CCC(=O)NCCS(=O)(=O)O)[C@H]1CC[C@H]2[C@@H]3[C@@H](O)C[C@@H]4C[C@H](O)CC[C@]4(C)[C@H]3CC[C@]12C [TAURURSODIOL] | HH: Evidence of human hepatotoxicity
CN1C(=O)OC(C)(C)C1=O [TRIMETHADIONE] | HH: Evidence of human hepatotoxicity
CC[C@@H]1C(=O)OC[C@@H]1Cc1cncn1C [PILOCARPINE] | NE: No evidence of hepatotoxicity in any species
CC1(C)[C@@H](OC(=O)CCC(=O)[O-])CC[C@]2(C)[C@H]3C(=O)C=C4[C@@H]5C[C@@](C)(C(=O)[O-])CC[C@]5(C)CC[C@@]4(C)[C@]3(C)CC[C@@H]12.[Na+].[Na+] [CARBENOXOLONE SODIUM] | NE: No evidence of hepatotoxicity in any species
CC(c1cc2ccccc2s1)N(O)C(N)=O (configuration not stated) [ZILEUTON] | HH: Evidence of human hepatotoxicity
Cc1ccccc1N1C(=O)c2cc(S(N)(=O)=O)c(Cl)cc2NC1C (configuration not stated) [METOLAZONE] | HH: Evidence of human hepatotoxicity
CC(=O)[C@H]1[C@H](C#N)C[C@H]2[C@@H]3CC=C4C[C@@H](O)CC[C@]4(C)[C@H]3CC[C@@]21C [PREGNENOLONE CARBONITRILE] | AH: Evidence for animal hepatotoxicity but not tested in humans
CN(C)C(=O)Oc1ccc[n+](C)c1.[Br-] [PYRIDOSTIGMINE BROMIDE] | NE: No evidence of hepatotoxicity in any species

Compound | Hepatotoxicity
NCCC(O)(P(=O)(O)O)P(=O)(O)O [PAMIDRONIC ACID] | NE: No evidence of hepatotoxicity in any species
C[C@H]1COc2c(N3CCN(C)CC3)c(F)cc3c(=O)c(C(=O)O)cn1c23.C[C@H]1COc2c(N3CCN(C)CC3)c(F)cc3c(=O)c(C(=O)O)cn1c23.O [LEVOFLOXACIN] | WE: Weak evidence (<10 case reports) of human hepatotoxicity
CC(NC(C)(C)C)C(=O)c1cccc(Cl)c1.Cl (configuration not stated) [BUPROPION HYDROCHLORIDE] | WE: Weak evidence (<10 case reports) of human hepatotoxicity
CN(C)C=O [DIMETHYLFORMAMIDE] | AH: Evidence for animal hepatotoxicity but not tested in humans
CCCCc1nc(Cl)c(CO)n1Cc1ccc(-c2ccccc2-c2nn[nH]n2)cc1 [LOSARTAN] | HH: Evidence of human hepatotoxicity
CC[C@H]1OC(=O)[C@H](C)[C@@H](O[C@H]2C[C@@](C)(OC)[C@@H](O)[C@H](C)O2)[C@H](C)[C@@H](O[C@@H]2O[C@H](C)C[C@H](N(C)C)[C@H]2O)[C@](C)(OC)C[C@@H](C)C(=O)[C@H](C)[C@@H](O)[C@]1(C)O [CLARITHROMYCIN] | HH: Evidence of human hepatotoxicity
Cl.O=C(O)CCCCCCNC1c2ccccc2CCc2ccccc21 [AMINEPTINE HYDROCHLORIDE] | HH: Evidence of human hepatotoxicity
CYANOCOBALAMIN | NE: No evidence of hepatotoxicity in any species
CO[C@H]1/C=C/O[C@@]2(C)Oc3c(C)c(O)c4c(c3C2=O)C2=NC3(CCN(CC(C)C)CC3)NC2=C(NC(=O)/C(C)=C\C=C\[C@H](C)[C@H](O)[C@@H](C)[C@@H](O)[C@@H](C)[C@H](OC(C)=O)[C@@H]1C)C4=O [RIFABUTIN] | HH: Evidence of human hepatotoxicity
CN(C)CCC(c1ccc(Br)cc1)c1ccccn1.O=C(O)/C=C\C(=O)O (configuration not stated) [BROMPHENIRAMINE MALEATE] | NE: No evidence of hepatotoxicity in any species
Nc1ccn([C@@H]2CS[C@H](CO)O2)c(=O)n1 [LAMIVUDINE] | WE: Weak evidence (<10 case reports) of human hepatotoxicity
COC(=O)Nc1nc2ccccc2[nH]1 [CARBENDAZIM] | AH: Evidence for animal hepatotoxicity but not tested in humans
CCc1c(C)[nH]c2c1C(=O)C(CN1CCOCC1)CC2.Cl (configuration not stated) [MOLINDONE HYDROCHLORIDE] | HH: Evidence of human hepatotoxicity
Cc1c2oc3c(C)ccc(C(=O)N[C@@H]4C(=O)N[C@H](C(C)C)C(=O)N5CCC[C@H]5C(=O)N(C)CC(=O)N(C)[C@@H](C(C)C)C(=O)O[C@@H]4C)c3nc-2c(C(=O)N[C@@H]2C(=O)N[C@H](C(C)C)C(=O)N3CCC[C@H]3C(=O)N(C)CC(=O)N(C)[C@@H](C(C)C)C(=O)O[C@@H]2C)c(N)c1=O [DACTINOMYCIN] (I: T[dV]P[Sar][NMeV] / II: T[dV]P[Sar][NMeV]; ester I:1-I:C, II:1-II:C; linker I:N-II:N via Actinocin(9to1)) | HH: Evidence of human hepatotoxicity
C[C@H](N)Cc1ccccc1.C[C@H](N)Cc1ccccc1.O=S(=O)(O)O [DEXTROAMPHETAMINE SULFATE] | HH: Evidence of human hepatotoxicity
COc1cc(NS(C)(=O)=O)ccc1Nc1c2ccccc2nc2ccccc12.Cl [AMSACRINE HYDROCHLORIDE] | HH: Evidence of human hepatotoxicity
C[C@H]1C[C@H]2[C@@H]3CCC4=CC(=O)C=C[C@]4(C)[C@@]3(F)[C@@H](O)C[C@]2(C)[C@@]1(O)C(=O)CO [BETAMETHASONE] | NE: No evidence of hepatotoxicity in any species
CCC(=O)OCC(=O)[C@@]1(OC(=O)CC)[C@@H](C)C[C@H]2[C@@H]3CCC4=CC(=O)C=C[C@]4(C)[C@@]3(Cl)[C@@H](O)C[C@@]21C [BECLOMETHASONE DIPROPIONATE] | NE: No evidence of hepatotoxicity in any species
NCCBr [BROMOETHANAMINE] | AH: Evidence for animal hepatotoxicity but not tested in humans

— ChEMBL document CHEMBL1697692, “Developing structure-activity relationships for the prediction of hepatotoxicity” (Chem Res Toxicol, 2010)
